According to US20170252289A1, “Hydroponic Tiliacora Triandra and Use Thereof” (Avon Products, Inc., priority 2016, published 2017):

Key:
[1] = test system: Human 3D skin EFT400FT tissues; experiment: Stimulation of HA production in human 3D skin tissues (hyaluronic acid test kit on conditioned medium); type: cell-based; conditions: 30 μl on apical surface, 8 hours per day for 3 days
Description: Method: Human 3D skin EFT400FT (MatTek, MA, USA) tissues were cultured following manufacture's instruction. Tiliacora triandra extract (extracted from hydroponically grown plant using 20/80 (v/v) water/ethanol) was added directly to the culture medium from a stock solution of 10% (w/w) extract in water in an amount adequate to achieve a final concentration of 0.2% (w/w) in the culture medium. The culture medium (EFT-400-MM) with and without Tiliacora triandra extract was collected 24 hours after dosing and fresh medium with and without Tiliacora triandra extract was added. Conditioned media from 3-day collection were pooled and assayed for the levels of HA.
HA production was measured using hyaluronic acid test kit (Corgenix, Inc. CO, USA). […] Add 100 μl Stopping Solution to stop the enzyme reaction and read the O.D. of each well at 450 nm. The amount of HA in the conditioned medium was calculated from this standard curve. […]
The same procedure of Example 4 was repeated using the skincare active glycolic acid, alone or in combination with hydroponic Tiliacora triandra extract, to investigate possible synergies between hydroponic Tiliacora triandra extract and glycolic acid. […] Glycolic acid was formulated into the base formula provided below in Table 3 in an amount calculated to provide a 0.5% (w/w) concentration of glycolic acid in the emulsion. […]

HAS2 gene = experiment: Hyaluronic acid synthase (HAS) gene expression by qPCR in treated 3D skin tissue, HAS2; type: cell-based, Human; conditions: treated 3D skin EFT400FT tissue, 18S house keeping gene
Description: (§1) Total RNA was isolated from each treated 3D skin EFT400FT tissue using Trizol reagent (Thermo Fisher Scientific, MA). 1 μg of total RNA was used to generate cDNA using Supercript III first strand synthesis kit (Thermo Fisher Scientific, MA). Reverse transcriptase, Buffer, dNTP, Random primer, and RNase Inhibitor were diluted with the RNA according to the protocol from the manufacturer. 25 ng cDNA was used in 20 μl q-PCR reactions. Briefly, 10 μl of TaqMan Advanced Master Mix (Thermo Fisher Scientific, MA), 4 μl of H2O, 5 μl of cDNA, and 1 μl of either HAS primer (HAS2 Hs00193435_m1 and HAS3 Hs00193436_m1, Applied Biosystems) or 18S (Hs99999901_s1, Applied Biosystems) as a house keeping gene were mixed in a 96 well plate. The condition of qPCR was an incubation step of 95° C. for 20 seconds followed by 40 cycles of 95° C. for 3 seconds and 60° C. for 30 seconds. CT and RQ values were obtained from the software of applied Biosystems 7500 Fast Real Time PCR system. The results are shown below in Table 6, as percentage change of expression of hyaluronan synthase genes over control.

HAS3 gene = experiment: Hyaluronic acid synthase (HAS) gene expression by qPCR in treated 3D skin tissue, HAS3; type: cell-based, Human; conditions: treated 3D skin EFT400FT tissue, 18S house keeping gene
Description: as §1

Compound	% change in HA level over the control ([1]; Example 5, 0.5% (w/w) glycolic acid emulsion) [%]	HAS2 gene % change of expression over control (HAS2 gene)	HAS3 gene % change of expression over control (HAS3 gene) [%]	% change in HA level over the control ([1]; Example 6, 5% (w/w) niacinamide emulsion) [%]
O=C(O)CO [Glycolic acid, glycolic acid]	25.21	No effect	101	–
NC(=O)c1cccnc1 [Niacinamide, niacinamide]	–	No effect	106	119.54
